In patent US20020052377A1, “Method for treating angina” (priority 2000, published 2002):

Key:
[1] = system: patients with angina, with or without diabetes; assay: MARISA exercise duration, diabetic (DM) vs non-DM patients; assay type: in vivo, human
Experimental: In this Example, ranolazine (Ran) was administered to two sets of human subjects. The first set of subjects were suffering from angina alone while the second set of subjects were suffering from angina and diabetes. The […] (Monotherapy Assessment of Ranolazine in Stable Angina) study randomized patients to Ran (500 mg, 1000 mg and 1500 mg bit) and placebo in a double-blind, 4 period crossover study. All patients performed a modified Bruce exercise test at the time of trough and peak drug levels on each treatment; 42 patients with DM were compared to 133 non-DM patients.

[2] = system: patients with chronic angina, with or without history of heart failure; assay: MARISA exercise duration, patients with or without history of heart failure (HF); assay type: in vivo, human
Experimental: This Example evaluates the effectiveness of ranolazine (Ran) in human patients with chronic angina and a history of heart failure. The […] (Monotherapy Assessment of Ranolazine In Stable Angina) study randomized patients to Ran (500 mg, 1000 mg and 1500 mg bid) and placebo in a double-blind, 4 period, crossover design study. […] All patients performed a modified Bruce exercise test at the time of trough (morning) and peak (afternoon) drug levels on each treatment.

SMILES: COc1ccccc1OCC(O)CN1CCN(CC(=O)Nc2c(C)cccc2C)CC1 (racemic) [Ranolazine, (±)-N-(2,6-dimethylphenyl)-4-[2-hydroxy-3-(2-methoxyphenoxy)propyl]-1-piperazine-acetamide]
- Ls mean ED ([1]; DM n = 42, 500 mg bid, peak): 527 s
- Ls mean ED ([1]; DM n = 42, 500 mg bid, trough): 520 s
- Ls mean ED ([1]; DM n = 42, 1000 mg bid, peak): 550 s
- Ls mean ED ([1]; DM n = 42, 1000 mg bid, trough): 526 s
- Ls mean ED ([1]; DM n = 42, 1500 mg bid, peak): 547 s
- Ls mean ED ([1]; DM n = 42, 1500 mg bid, trough): 530 s
- Ls mean ED ([1]; Non-DM n = 133, 500 mg bid, peak): 530 s
- Ls mean ED ([1]; Non-DM n = 133, 500 mg bid, trough): 528 s
- Ls mean ED ([1]; Non-DM n = 133, 1000 mg bid, peak): 550 s
- Ls mean ED ([1]; Non-DM n = 133, 1000 mg bid, trough): 539 s
- Ls mean ED ([1]; Non-DM n = 133, 1500 mg bid, peak): 557 s
- Ls mean ED ([1]; Non-DM n = 133, 1500 mg bid, trough): 544 s
- LS mean ED ([2]; HF n=29, 500 mg bid, peak): 518 s
- LS mean ED ([2]; HF n=29, 500 mg bid, trough): 512 s
- LS mean ED ([2]; HF n=29, 1000 mg bid, peak): 520 s
- LS mean ED ([2]; HF n=29, 1000 mg bid, trough): 514 s
- LS mean ED ([2]; HF n=29, 1500 mg bid, peak): 545 s
- LS mean ED ([2]; HF n=29, 1500 mg bid, trough): 524 s
- LS mean ED ([2]; No HF n=146, 500 mg bid, peak): 538 s
- LS mean ED ([2]; No HF n=146, 500 mg bid, trough): 539 s
- LS mean ED ([2]; No HF n=146, 1000 mg bid, peak): 563 s
- LS mean ED ([2]; No HF n=146, 1000 mg bid, trough): 551 s
- LS mean ED ([2]; No HF n=146, 1500 mg bid, peak): 564 s
- LS mean ED ([2]; No HF n=146, 1500 mg bid, trough): 563 s
